We go through 1 compound from PMC6279743, “A small molecule ApoE4-targeted therapeutic candidate that normalizes sirtuin 1 levels and improves cognition in an Alzheimer’s disease mouse model” (Scientific Reports, 2018).

Like-named read-outs stand apart in the source and are kept apart here.

A word on the Tmax: it is the time from dosing to the highest level. Broadly, the AUC is the area under the concentration-time curve, a measure of exposure. A low value points to low exposure.

One series concerns patients. To be noted: cited from earlier work.
In the next series the test system is E4FAD mice. Briefly: Toxicity observation and body weights in 56-day study. In kind it is in vivo. An excerpt: E4FAD mice were 10–12 mo and NTg mice 7–9 mo at the start of the study.
The nature of series [1]: Pharmacokinetics after oral delivery in mice. To be noted: oral 10 mg/kg. The class given is in vivo. Here is the method: All in vivo experiments described were carried out in strict accordance with good animal practice according to NIH recommendations. All procedures for animal use were approved by the Animal Research Committee (ARC) at UCLA and under an approved ARC protocol. Pharmacokinetic (PK) analysis[68]–[70] consisted of oral delivery of compounds (10 mg/Kg) to individual mice followed by euthanasia at 1, 2, 4, 6, and 8 hours post-dose by ketamine/xylazine over-anesthesia, blood collection by cardiac puncture, and transcardial saline perfusion. Whole blood was centrifuged at 5000 rpm for 10 min. in a 5 °C centrifuge to isolate plasma and the plasma stored at −20 °C before analysis. Whole brains were collected, dissected down the midline, snap frozen on dry ice, and stored at −80 °C before analysis. The levels of the compounds in both plasma and brain tissue were determined by a quantitative LC/MS/MS methodology at Integrated Analytical Solutions (IAS, Berkeley, CA). Plasma samples were precipitated with an acetonitrile: methanol (1:1) cocktail containing an internal standard. Brain samples were homogenized directly in ethyl acetate by the liquid-liquid method. The resulting supernatant was evaporated to dryness and subjected to LC/MS/MS analysis. The Tmax, Cmax, brain-to-plasma ratios and brain levels were then calculated using PK Solutions software (SummitPK).

Series [2] is described as follows: Pharmacokinetics after subcutaneous (SQ) injection in mice. In kind it is in vivo.
Series [3] relates to SirT1 levels in N2a-E4 cells. Briefly: SirT1 AlphaLISA in N2a-E4 cells (HTS, secondary and dose-response testing). In kind it is cell-based, murine. The following applies: for EC50: Mus musculus. As to the method:
For HTS we tested a portion of the UCLA compound library (10 plates) including the NIH Clinical Collection library (3 plates). Complete medium (25 µL) was added to each well of 384-well plates, then library compounds were added (250 nL) followed by a suspension of 4 × 10^5 cells/mL murine neuroblastoma N2a cells (25 μL) stably transfected with ApoE4 (N2a-E4). After incubation of the N2a-E4 cells with compounds for 24 hrs at 37 °C and 5% CO2, all but ~6 μL of medium were removed and AlphaLISA Lysis Buffer complemented with HALT protease/phosphatase inhibitor (20 μL, 1X final) was added to each well. To maximize lysis, the plates were frozen at −80 °C. For the AlphaLISA, lysates were thawed and vortexed for 1 min at 3000 rpm.
The AlphaLISA comprises streptavidin donor beads, biotinylated anti-SirT1 N-terminal antibody (19A7AB4), and acceptor beads conjugated to the anti-SirT1 C-terminal antibody (1F3); when the target protein is bound by both antibodies, the beads are in close enough proximity for a transfer of ^1O2 and emission of a detectable signal (Supplementary Fig. S3). For the AlphaLISA, a 384-proxy plate was preloaded with AlphaLISA buffer (2 µL, 1X) with HALT (1X), then cell lysate (2 μL) was transferred to the proxy plate followed by the antibody-mix (2 μL). After incubation at room temperature for 1 hr, the donor bead mixture was added (2 µL) and incubated for an additional 30 min. The plates were then read in an Envision plate reader. All points are one replicate. The standard curve is generated by serial dilution of recombinant SirT1 to assess the linear range of the assay; study samples undergo serial dilution as well. We use A03 as a positive control in the HTS assay. The Z-value, while not ideal, was <1 for the assay (Supplementary Fig. S3).
Compound in medium (50 µL, 2X) was loaded into a 96-well plate, then 4 × 10^4 cells were added to each well; 24 hrs later the medium was removed and cells lysed. Lysate protein concentration was determined using the Bradford assay according to the manufacturer’s instructions. SirT1 was determined in lysates using the SirT1 AlphaLISA as described above.

Series [4] deals with SirT1 levels in A172-E4 cells. Briefly: Confirmation assay in A172-E4 cells, SirT1 AlphaLISA. The class given is cell-based, human. To be noted: 50 μM A03 vs DMSO. Here is the method:
(§1) Jesus Campagna, Patricia Spilman, Barbara Jagodzinska, Dongsheng Bai, Asa Hatami, Chunni Zhu, Tina Bilousova, Michael Jun, Chris Jean Elias, Johnny Pham, Gregory Cole, Mary Jo LaDu, Michael E. Jung, Dale E. Bredesen, and […]
(§2) Confirmation assay in A172-E4 cells. Befo re transfection, A172 human glioblastoma cells were cultured in Dulbecco’s Modified Eagle Medium (DMEM) supplemented with 10% fetal bovine serum and 1% penicillin/streptomycin in a 37 °C incubator in an atmosphere of 5% CO2 in air. The day of transfection, the media was replaced with Opti-MEM reduced serum medium. Transient transfection with human ApoE4 and ApoE3 constructs in pcDNA3 mammalian expression vectors or empty vector (control) was performed in 96-well plates using a 1:1 mixture of two transfection reagents - Lipofectamine 2000 and siPORT amine - in Opti-MEM as previously described13. After 4 hr incubation with transfection reagents, medium was exchanged for fresh […]
(§3) Cells were incubated with the compound for 60 hrs, then cell culture medium (for sAPPα) and cells (lysates for SirT1) were harvested and levels of sAPPα and SirT1
Background: Bead proximity is the source of the signal in Alpha formats.

Series [5] concerns sAPPα levels in A172-E4 cells. Briefly: Confirmation assay in A172-E4 cells, sAPPα AlphaLISA. The class given is cell-based, human. The following applies: 50 μM A03 vs DMSO, cell culture medium. Here is the method:
as §1, §2, §3

For `CC(N)C(=O)OC(C)(C)Cc1ccc(Cl)cc1` (stereo not drawn) [A03, alaproclate], in the series on patients (human), the “Liver function in Phase 1 trial for depression” value is “some liver function changes were seen”. Also, in the series with patients (human), the “Toxicity in second clinical study” value is on record as “no toxicity up to 200 mg BID”. For the same compound, the “Global scores in moderate to advanced AD patients” value in the series on patients (small clinical studies) is given as “some improvements in global scores”. Moreover, the Body weights entry with E4FAD mice (56-day oral study) was “stayed the same”. For the same compound, the “Signs of toxicity by cage-side observation” value in the series on E4FAD mice (E4FAD mice, oral 56-day treatment) is recorded as “no signs of toxicity”. For the same compound, the Tmax was 1 h in series [1] (mouse, brain, n = 1 per time point) and 2 h in series [2] (mouse, brain, sc, mice, SQ 10 mg/kg, n = 1). For the same compound, the AUC in series [1] (mouse, plasma, 1-8 hours) was determined as 266 ng·h/mL; in series [2] (mouse, plasma, subcutaneous, mice, SQ 10 mg/kg), 1520 ng·h/mL. The compound further returned an AUC brain in series [1] (1-8 hours) of 1336 ng·h/g. The “factor by which brain levels after SQ exceed those after oral delivery” value in series [2] (10 mg/Kg SQ vs 10 mg/Kg oral) was 4 to 5. In series [2] (mice, SQ 10 mg/kg, unit as printed in Fig. 4d legend), the AUC plasma came to 1520 ng·h/mL. Besides, the Cmax in series [2] (mouse, brain, sc, mice, SQ 10 mg/kg, n = 1, read-out: Cmax in brain) is about 2600 ng/g; in series [2] (mouse, brain, subcutaneous, mice, SQ 10 mg/Kg, read-out: Cmax in brain as molar concentration), about 10 µM. Further, the EC50 in series [3] (read-out: EC50 for enhancement of SirT1, N2a-E4 cells, dose-response curve, n = 3 at each concentration) worked out at 2.3 µM; in series [3] (N2a-E4 cells, dose-response curve, n = 3 at each concentration, read-out: EC50 for enhancement of SirT1), 2 µM. For the same compound, the “Dose-response increase in SirT1 in secondary testing” value in series [3] (N2a-E4 cells, 1, 5 and 10 μM) is “showed a dose-response”. In series [3] (N2a-E4 cells, 5 and 50 μM, n = 3 wells), the “SirT1 increase, racemate vs enantiomers” value is “increase SirT1 in N2a-E4 with high significance”. Further, in series [3] (N2a-E4 cells, 24 hrs, NIH Clinical Collection screen, A03 5 μM as positive control), the “SirT1 level in HTS” value was “significantly increased SirT1”. Further, the “SirT1 (normalized to protein)” value in series [3] (N2a-E4 cells, A03 at 5 or 50 μM vs DMSO) is on record as “dose-response increase”. For the same compound, in series [3] (secondary assay, N2a-E4 cells, 1 μM, n = 6 wells), the “SirT1 increase vs DMSO control at 1 μM” value is listed as “modest but significant increases”. The “SirT1 increase vs DMSO control at 5 and 10 μM” value in series [3] (secondary assay, N2a-E4 cells, 5 and 10 μM, n = 6 wells) is “increased SirT1”. The “SirT1 levels in ApoE4-transfected A172 cells” value in series [4] is reported as “significantly increased SirT1 levels”. Further, the “sAPPα levels in A172-E4 cells” value in series [5] is “significant increase”.
